Data published in the supplement of paper PMC11061612.

Assays:
Assay in all cases: combination Emax (second highest fraction inhibited in the dose matrix, 72 h); higher = more inhibition; extreme values may be limits of the assay
EW-18 (Ewing's Sarcoma) = test system: EW-18 (Ewing's Sarcoma)
Method in brief: (§1)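 Cell lines in DMEM/F12 or RPMI with 10% FBS were plated in 1536-well plates, held 24 hours at 37°C, 5% CO2, then given two-drug dose matrices for 72 hours (DMSO typically 0.2%). Viability was read by CellTiter-Glo 2.0 luminescence and scaled as inhibition from 0 (vehicle wells) to 1 (blank wells). Combination Emax is the second-highest inhibition in the matrix; Bliss excess is observed combination effect minus expected EA + EB − EA·EB, EA and EB being single-agent effects.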

IMR-5 (Neuroblastoma) = test system: IMR-5 (Neuroblastoma)
Method in brief: as §1

[1] = test system: KLE (Endometrial Carcinoma)
Method in brief: as §1

[2] = test system: HSC-2 (Oral Cavity Carcinoma)
Method in brief: as §1

U-87-MG (Glioblastoma) = test system: U-87-MG (Glioblastoma)
Method in brief: as §1

NB7 (Neuroblastoma) = test system: NB7 (Neuroblastoma)
Method in brief: as §1

EW-13 (Ewing's Sarcoma) = test system: EW-13 (Ewing's Sarcoma)
Method in brief: as §1

BT-20 (Breast Carcinoma) = test system: BT-20 (Breast Carcinoma)
Method in brief: as §1

[3] = test system: HC-1 (Other Blood Carcinomas)
Method in brief: as §1

[4] = test system: MFE-319 (Endometrial Carcinoma)
Method in brief: as §1

RPMI-7951 (Melanoma) = test system: RPMI-7951 (Melanoma)
Method in brief: as §1

[5] = test system: TGBC11TKB (Gastric Carcinoma)
Method in brief: as §1

A704 (Kidney Carcinoma) = test system: A704 (Kidney Carcinoma)
Method in brief: as §1

[6] = test system: EBC-1 (Squamous Cell Lung Carcinoma)
Method in brief: as §1

[7] = test system: HuP-T3 (Pancreatic Carcinoma)
Method in brief: as §1

[8] = test system: NCI-N87 (Gastric Carcinoma)
Method in brief: as §1

[9] = test system: NCI-H1573 (Lung Adenocarcinoma)
Method in brief: as §1

[10] = test system: SNU-C1 (Colorectal Carcinoma)
Method in brief: as §1

EW-3 (Ewing's Sarcoma) = test system: EW-3 (Ewing's Sarcoma)
Method in brief: as §1

[11] = test system: H-EMC-SS (Chondrosarcoma)
Method in brief: as §1

Structure (SMILES) | combination Emax (EW-18 (Ewing's Sarcoma)) | combination Emax (IMR-5 (Neuroblastoma)) | combination Emax [1] | combination Emax [2] | combination Emax (U-87-MG (Glioblastoma)) | combination Emax (NB7 (Neuroblastoma)) | combination Emax (EW-13 (Ewing's Sarcoma)) | combination Emax (BT-20 (Breast Carcinoma)) | combination Emax [3] | combination Emax [4] | combination Emax (RPMI-7951 (Melanoma)) | combination Emax [5] | combination Emax (A704 (Kidney Carcinoma)) | combination Emax [6] | combination Emax [7] | combination Emax [8] | combination Emax [9] | combination Emax [10] | combination Emax (EW-3 (Ewing's Sarcoma)) | combination Emax [11]
Cc1c2c(nn1C)CSCc1cc(n(C)n1)CSc1cc(c3ccccc3c1)OCCCc1c(C(=O)O)n(C)c3c-2c(Cl)ccc13 [AZD5991] + C=CCn1c(=O)c2cnc(Nc3ccc(N4CCN(C)CC4)cc3)nc2n1-c1cccc(C(C)(C)O)n1 [AZD1775] (first compound max 1 µM, partner max 1 µM) | 0.91 | 1 | 0.538 | 0.853 | 0.457 | 0.869 | 0.388 | 0.809 | 0.994 | 0.913 | 0.957 | 0.922 | 0.43 | 0.299 | 0.457 | 0.727 | 0.427 | 0.395 | 0.701 | 0.399
Cc1c2c(nn1C)CSCc1cc(n(C)n1)CSc1cc(c3ccccc3c1)OCCCc1c(C(=O)O)n(C)c3c-2c(Cl)ccc13 [AZD5991] + CC1(C)CCC(CN2CCN(c3ccc(C(=O)NS(=O)(=O)c4ccc(NCC5CCOCC5)c([N+](=O)[O-])c4)c(Oc4cnc5[nH]ccc5c4)c3)CC2)=C(c2ccc(Cl)cc2)C1 [Venetoclax] (first compound max 1 µM, 7x7, partner max 1 µM) | 0.919 | 0.995 | 0.156 | 0.965 | 0.174 | 0.513 | 0.675 | 0.889 | 0.762 | 0.881 | 0.903 | 0.792 | 0.344 | 0.199 | 0.128 | 0.23 | 0.302 | 0.574 | 0.953 | 0.515
Cc1c2c(nn1C)CSCc1cc(n(C)n1)CSc1cc(c3ccccc3c1)OCCCc1c(C(=O)O)n(C)c3c-2c(Cl)ccc13 [AZD5991] + CCN(CCO)CCCOc1ccc2c(Nc3cc(CC(=O)Nc4cccc(F)c4)[nH]n3)ncnc2c1 [AZD2811] (first compound max 1 µM, 7x7, partner max 1 µM) | 0.919 | 1 | 0.267 | 0.968 | 0.326 | 0.872 | 0.454 | 0.787 | 0.737 | 0.603 | 0.974 | 0.582 | 0.177 | 0.243 | 0.241 | 0.395 | 0.425 | 0.415 | 0.771 | 0.392
Cc1c2c(nn1C)CSCc1cc(n(C)n1)CSc1cc(c3ccccc3c1)OCCCc1c(C(=O)O)n(C)c3c-2c(Cl)ccc13 [AZD5991] + CN(C)CCCOc1ccc(-c2ccc3ncc4c(c3c2)n(C2CCOCC2)c(=O)n4C)cn1 [AZD0156] (first compound max 1 µM, 7x7, partner max 1 µM) | 0.94 | 0.985 | 0.262 | 0.835 | 0.253 | 0.499 | 0.401 | 0.636 | 0.37 | 0.78 | 0.945 | 0.476 | 0.24 | 0.251 | 0.213 | 0.45 | 0.394 | 0.424 | 0.662 | 0.431
Cc1c2c(nn1C)CSCc1cc(n(C)n1)CSc1cc(c3ccccc3c1)OCCCc1c(C(=O)O)n(C)c3c-2c(Cl)ccc13 [AZD5991] + C[C@@H](Nc1cc(F)cc(F)c1)c1cc(C(=O)N(C)C)cc2c(=O)cc(N3CCOCC3)oc12 [AZD8186] (first compound max 1 µM, 7x7, partner max 3 µM) | 0.94 | 0.955 | 0.493 | 0.963 | 0.45 | 0.686 | 0.454 | 0.614 | 0.534 | 0.401 | 0.939 | 0.548 | 0.496 | 0.307 | 0.288 | 0.442 | 0.318 | 0.439 | 0.636 | 0.476
Cc1c2c(nn1C)CSCc1cc(n(C)n1)CSc1cc(c3ccccc3c1)OCCCc1c(C(=O)O)n(C)c3c-2c(Cl)ccc13 [AZD5991] + Cc1cc2ncnn2cc1Nc1ncc2c(n1)n(C1CCOCC1)c(=O)n2C [AZD7648] (first compound max 1 µM, 7x7, partner max 10 µM) | 0.936 | 1 | 0.342 | 0.844 | 0.326 | 0.546 | 0.403 | 0.694 | 0.456 | 0.471 | 0.91 | 0.359 | 0.259 | 0.291 | 0.228 | 0.492 | 0.673 | 0.412 | 0.727 | 0.479
